pIC50: −log10 of the molar value.

The target of one test is T1, hGalectin-3 (Homo sapiens, UniProt P17931).
T1 construct: made in house
T1 sequence (P17931 whole entry): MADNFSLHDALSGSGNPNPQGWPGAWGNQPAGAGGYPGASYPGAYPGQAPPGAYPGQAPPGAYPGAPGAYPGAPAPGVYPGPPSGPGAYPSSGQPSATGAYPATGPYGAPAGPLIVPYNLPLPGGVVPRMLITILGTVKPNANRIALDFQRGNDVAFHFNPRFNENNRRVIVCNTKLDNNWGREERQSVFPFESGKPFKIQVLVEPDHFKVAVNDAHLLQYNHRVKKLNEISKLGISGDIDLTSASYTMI
As to the kind of experiment: Gal-3 ELISA assay (hGalectin-3 neutralization binding to asialofetuin). The following applies: Table 1; read-out: hGal-3 IC50. (In general: An ELISA detects its analyte on a solid surface through an enzyme-linked reagent.)
What is called pIC50 is −log10 of the IC50, conventionally taken in molar units. As for `O=C([C@@H]1O[C@H](CO)[C@H](O)[C@H](n2cc(-c3cccc(F)c3)nn2)[C@H]1O)N1CCN(c2ccc3[nH]ccc3c2)CC1` [Example 3], the pIC50 is 6.32.
The same measure, in the same setting: the figure for `O=C([C@@H]1O[C@H](CO)[C@H](O)[C@H](n2cc(-c3cccc(F)c3)nn2)[C@H]1O)N1CCN(c2ccc(O)cn2)CC1` [Example 2] is 6.40.

The same test, now with this note: Table 2; read-out: hGal-3 IC50.
For `CO[C@@H]1[C@@H](n2cc(-c3cccc(F)c3)nn2)[C@@H](O)[C@@H](CO)O[C@H]1C(=O)N1C[C@H]2C[C@@H]1CN2c1ccc2c(c1)OCO2` [Example 17], the negative-log IC50 (pIC50) was 6.51.
Turning to `COc1ccc(N2C[C@H]3C[C@@H]2CN3C(=O)[C@@H]2O[C@H](CO)[C@H](O)[C@H](n3cc(-c4cccc(F)c4)nn3)[C@H]2OC)cc1` [Example 16], the negative-log IC50 (pIC50) is 6.28.
Still for that read-out and setting: under `CO[C@@H]1[C@@H](n2cc(-c3cccc(F)c3)nn2)[C@@H](O)[C@@H](CO)O[C@H]1C(=O)N1CCN(c2ccc3c(ccn3C)c2)CC1` [Example 14] stands 6.39.

The test is the same for the next values; noted with them: Table 3; read-out: hGal-3 IC50.
On to `COc1ccc(N2CC3CC2CN3C(=O)C2OC(CO)C(O)C(n3cc(-c4cccc(F)c4)nn3)C2O)cc1OC` (centres unmarked) [Example 22], for which the pIC50 is 6.28.

The test is the same for the next values; noted with them: biotin-tagged hGalectin-3 15 nM, ASF-coated plate; read-out: hGal3 IC50.
For the compound `Cc1ccc(N2C[C@H]3CN(C(=O)[C@@H]4O[C@H](CO)[C@H](O)[C@H](n5cc(-c6cccc(F)c6)nn5)[C@H]4O)C[C@H]3C2)cc1` [Example 38, ((2R,3R,4S,5R,6R)-4-(4-(3-fluorophenyl)-1H-1,2,3-triazol-1-yl)-3,5-dihydroxy-6-(hydroxymethyl)tetrahydro-2H-pyran-2-yl)((3aR,6aS)-5-(p-tolyl)hexahydropyrrolo[3,4-c]pyrrol-2(1H)-yl)methanone], the negative logarithm of the IC50 (pIC50) was 6.40.
Take `COc1ccc(N2C[C@@H]3C[C@H]2CN3C(=O)C[C@@H]2O[C@H](CO)[C@H](O)[C@H](n3cc(-c4cccc(F)c4)nn3)[C@H]2O)cc1` [Example 27, 2-((2S,3R,4R,5R,6R)-4-(4-(3-fluorophenyl)-1H-1,2,3-triazol-1-yl)-3,5-dihydroxy-6-(hydroxymethyl)tetrahydro-2H-pyran-2-yl)-1-((1S,4S)-5-(4-methoxyphenyl)-2,5-diazabicyclo[2.2.1]heptan-2-yl)ethanone]: the negative logarithm of the IC50 (pIC50) is 6.46.
In the case of `COC(=O)Nc1ccc(N2C[C@@H]3C[C@H]2CN3C(=O)[C@@H]2O[C@H](CO)[C@H](O)[C@H](n3cc(-c4cccc(F)c4)nn3)[C@H]2O)cc1` [Example 23, methyl (4-((1S,4S)-5-((2R,3R,4S,5R,6R)-4-(4-(3-fluorophenyl)-1H-1,2,3-triazol-1-yl)-3,5-dihydroxy-6-(hydroxymethyl)tetrahydro-2H-pyran-2-carbonyl)-2,5-diazabicyclo[2.2.1]heptan-2-yl)phenyl)carbamate], the negative-log IC50 (pIC50) was 6.23.
On the same count and under the same terms, the figure for `OCC1CN(c2ccc(O)cc2)CCN1C[C@@H]1O[C@H](CO)[C@H](O)[C@H](n2cc(-c3cccc(F)c3)nn2)[C@H]1O` (single isomer, unassigned) [Example 39a] is 6.51; for `O=C([C@@H]1O[C@H](CO)[C@H](O)[C@H](n2cc(-c3cccc(F)c3)nn2)[C@H]1O)N1CCN(c2ccc(O)cc2)CC1CO` (single isomer, unassigned) [Example 34b] it is 6.35; for `O=C([C@@H]1O[C@H](CO)[C@H](O)[C@H](n2cc(-c3cccc(F)c3)nn2)[C@H]1O)N1C[C@@H]2C[C@H]1CN2c1ccc2[nH]ccc2c1` [Example 26, ((1S,4S)-5-(1H-indol-5-yl)-2,5-diazabicyclo[2.2.1]heptan-2-yl)((2R,3R,4S,5R,6R)-4-(4-(3-fluorophenyl)-1H-1,2,3-triazol-1-yl)-3,5-dihydroxy-6-(hydroxymethyl)tetrahydro-2H-pyran-2-yl)methanone] it is 6.52.
Same read-out and setting: the figure for `O=C([C@@H]1O[C@H](CO)[C@H](O)[C@H](n2cc(-c3cccc(F)c3)nn2)[C@H]1O)N1CCN(c2ccc(O)cn2)CC1` [Example 2] is 6.57; for `OCC1CN(c2ccc(O)cc2)CCN1C[C@@H]1O[C@H](CO)[C@H](O)[C@H](n2cc(-c3cccc(F)c3)nn2)[C@H]1O` (single isomer, unassigned) [Example 39b] it is 6.41.
Take `C[C@@H]1CN(c2ccc(O)cc2)[C@@H](C)CN1C(=O)[C@@H]1O[C@H](CO)[C@H](O)[C@H](n2cc(-c3cccc(F)c3)nn2)[C@H]1O` (single isomer, unassigned) [Example 37a]: the pIC50 was 6.46.
`OCC1CN(C[C@@H]2O[C@H](CO)[C@H](O)[C@H](n3cc(-c4cccc(F)c4)nn3)[C@H]2O)CCN1c1ccc(O)cc1` (single isomer, unassigned) [Example 40b]: the negative logarithm of the IC50 (pIC50) was 5.80.
Regarding `O=C([C@@H]1O[C@H](CO)[C@H](O)[C@H](n2cc(-c3cccc(F)c3)nn2)[C@H]1O)N1CCN(c2ccc(O)cc2)CC1` [Example 1, ((2R, 3R, 4S, 5R, 6R)-4-(4-(3-fluorophenyl)-1H-1,2,3-triazol-1-yl)-3,5-dihydroxy-6-(hydroxymethyl)tetrahydro-2H-pyran-2-yl)(4-(4-hydroxyphenyl)piperazin-1-yl) methanone], the negative-log IC50 (pIC50) is 6.46.
The same measure, in the same setting: the figure for `O=C([C@@H]1O[C@H](CO)[C@H](O)[C@H](n2cc(-c3cccc(F)c3)nn2)[C@H]1O)N1C[C@H]2C[C@@H]1CN2c1ccc2c(c1)OCO2` [Example 32] is 6.74; for `CS(=O)(=O)Nc1ccc(N2C[C@@H]3C[C@H]2CN3C(=O)[C@@H]2O[C@H](CO)[C@H](O)[C@H](n3cc(-c4cccc(F)c4)nn3)[C@H]2O)cc1` [Example 24, N-(4-((1S,4S)-5-((2R,3R,4S,5R,6R)-4-(4-(3-fluorophenyl)-1H-1,2,3-triazol-1-yl)-3,5-dihydroxy-6-(hydroxymethyl)tetrahydro-2H-pyran-2-carbonyl)-2,5-diazabicyclo[2.2.1]heptan-2-yl)phenyl)methanesulfonamide] it is 6.17; for `COc1ccc(N2C[C@@H]3C[C@H]2CN3C(=O)[C@@H]2O[C@H](CO)[C@H](O)[C@H](n3cc(-c4cccc(F)c4)nn3)[C@H]2O)cc1` [Example 19, ((2R,3R,4S,5R,6R)-4-(4-(3-fluorophenyl)-1H-1,2,3-triazol-1-yl)-3,5-dihydroxy-6-(hydroxymethyl)tetrahydro-2H-pyran-2-yl)((1S,4S)-5-(4-methoxyphenyl)-2,5-diazabicyclo[2.2.1]heptan-2-yl)methanone] it is 6.60.
On the same count and under the same terms, under `CS(=O)(=O)Nc1ccc(N2CCN(C(=O)[C@@H]3O[C@H](CO)[C@H](O)[C@H](n4cc(-c5cccc(F)c5)nn4)[C@H]3O)CC2)nc1` [Example 8, N-(6-(4-((2R,3R,4S,5R,6R)-4-(4-(3-fluorophenyl)-1H-1,2,3-triazol-1-yl)-3,5-dihydroxy-6-(hydroxymethyl)tetrahydro-2H-pyran-2-carbonyl)piperazin-1-yl)pyridin-3-yl)methanesulfonamide] stands 6.12; under `O=C(Nc1ccc(O)cc1)N1CCN(C(=O)[C@@H]2O[C@H](CO)[C@H](O)[C@H](n3cc(-c4cccc(F)c4)nn3)[C@H]2O)CC1` [Example 18, 4-((2R,3R,4S,5R,6R)-4-(4-(3-fluorophenyl)-1H-1,2,3-triazol-1-yl)-3,5-dihydroxy-6-(hydroxymethyl)tetrahydro-2H-pyran-2-carbonyl)-N-(4-hydroxyphenyl)piperazine-1-carboxamide], 6.60; under `CO[C@@H]1[C@@H](n2cc(-c3cccc(F)c3)nn2)[C@@H](O)[C@@H](CO)O[C@H]1C(=O)N1CCN(c2ccc(O)cn2)CC1` [Example 12, ((2R, 3R, 4S, 5R, 6R)-4-(4-(3-fluorophenyl)-1H-1,2,3-triazol-1-yl)-5-hydroxy-6-(hydroxymethyl)-3-methoxytetrahydro-2H-pyran-2-yl)(4-(5-hydroxypyridin-2-yl)piperazin-1-yl) methanone], 6.33.

These data come from patent publication US12286424B2, “Small molecule inhibitors of galectin-3” (BRISTOL-MYERS SQUIBB COMPANY, priority 2020, dated 2025).
